# Measurements: patent publication US8802597B2, “Herbicidal pyrimidines” (E I du Pont de Nemours and Company, priority 2003, dated 2014)
# Legend:
# Assay type in all cases: in vivo
# [1] = tested on: crabgrass (Digitaria sanguinalis); assay: Test A pre/postemergence
# Method in brief: (§1)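 After planting in loam and sand, species received test chemical as preemergence soil spray; postemergence spray went on 2–10 cm plants at 1–2 leaves at the same time. Evaluation: visual injury, ~10 d, 0 no effect to 100 complete control.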
# [2] = tested on: velvetleaf (Abutilon theophrasti); assay: Test A pre/postemergence
# Method in brief: as §1
# [3] = tested on: giant foxtail (Setaria faberi); assay: Test A pre/postemergence
# Method in brief: as §1
# [4] = tested on: barnyardgrass (Echinochloa crus-galli); assay: Test A pre/postemergence
# Method in brief: as §1
# [5] = tested on: morningglory (Ipomoea spp.); assay: Test A pre/postemergence
# Method in brief: as §1
# [6] = tested on: redroot pigweed (Amaranthus retroflexus); assay: Test A pre/postemergence
# Method in brief: as §1
# [7] = tested on: junglerice (Echinochloa colona); assay: Test E flooded paddy water application; settings: Flood, 21 days, scale 0 to 100 (0 no effect, 100 complete control)
# Method in brief: (§2)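 Greenhouse pots of Tama silt loam with weeds and rice at 2.0–2.5-leaf stage, flooded to 3 cm; compounds applied directly into paddy water, depth maintained. Visual rating versus untreated controls after 21 days, 0 (no effect) to 100 (complete control); 29.5/26.7 °C, 16-h photoperiod.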
# [8] = tested on: water seeded rice seedlings (Oryza sativa cv. ‘Japonica-M202’); assay: Test E flooded paddy water application; settings: Flood, 21 days, scale 0 to 100 (0 no effect, 100 complete control)
# Method in brief: as §2
# [9] = tested on: early watergrass (Echinochloa oryzoides); assay: Test E flooded paddy water application; settings: Flood, 21 days, scale 0 to 100 (0 no effect, 100 complete control)
# Method in brief: as §2
# [10] = tested on: purple redstem (Ammannia coccinea); assay: Test E flooded paddy water application; settings: Flood, 21 days, scale 0 to 100 (0 no effect, 100 complete control)
# Method in brief: as §2
# [11] = tested on: barnyardgrass (Echinochloa crus-galli); assay: Test E flooded paddy water application; settings: Flood, 21 days, scale 0 to 100 (0 no effect, 100 complete control)
# Method in brief: as §2
# [12] = tested on: late watergrass (Echinochloa oryzicola); assay: Test E flooded paddy water application; settings: Flood, 21 days, scale 0 to 100 (0 no effect, 100 complete control)
# Method in brief: as §2
# [13] = tested on: smallflower umbrella sedge (Cyperus difformis); assay: Test E flooded paddy water application; settings: Flood, 21 days, scale 0 to 100 (0 no effect, 100 complete control)
# Method in brief: as §2
# [14] = tested on: ducksalad (Heteranthera limosa); assay: Test E flooded paddy water application; settings: Flood, 21 days, scale 0 to 100 (0 no effect, 100 complete control)
# Method in brief: as §2
# [15] = tested on: transplanted rice seedlings (Oryza sativa cv. ‘Japonica-M202’); assay: Test E flooded paddy water application; settings: Flood, 21 days, scale 0 to 100 (0 no effect, 100 complete control)
# Method in brief: as §2
# [16] = tested on: rice flatsedge (Cyperus iria); assay: Test E flooded paddy water application; settings: Flood, 21 days, scale 0 to 100 (0 no effect, 100 complete control)
# Method in brief: as §2
# [17] = tested on: bearded (brdd.) sprangletop (Leptochloa fusca ssp. fascicularis); assay: Test E flooded paddy water application; settings: Flood, 21 days, scale 0 to 100 (0 no effect, 100 complete control)
# Method in brief: as §2
# [18] = Postemergence, 125 g ai/ha, 0 to 100 scale (0 no effect, 100 complete control)
# [19] = Postemergence, 500 g ai/ha, 0 to 100 scale (0 no effect, 100 complete control)
# [20] = Preemergence, 125 g ai/ha, 0 to 100 scale where 0 is no effect and 100 is complete control, approximately ten days
# [21] = Preemergence, 500 g ai/ha, 0 to 100 scale where 0 is no effect and 100 is complete control, approximately ten days
structure (smiles),measurement,setting,value
CCOC(=O)c1nc(-c2ccc(Cl)cc2Cl)nc(N)c1Cl [Compound 72],"Plant response rating, Crabgrass",[1]; [18],10
same,"Plant response rating, Crabgrass",[1]; [19],30
same,"Plant response rating, Crabgrass",[1]; [20],0
same,"Plant response rating, Crabgrass",[1]; [21],0
same,"Plant response rating, Velvetleaf",[2]; [18],85
same,"Plant response rating, Velvetleaf",[2]; [19],85
same,"Plant response rating, Velvetleaf",[2]; [20],40
same,"Plant response rating, Velvetleaf",[2]; [21],55
same,"Plant response rating, Foxtail, Giant",[3]; [18],0
same,"Plant response rating, Foxtail, Giant",[3]; [19],0
same,"Plant response rating, Foxtail, Giant",[3]; [20],0
same,"Plant response rating, Foxtail, Giant",[3]; [21],0
same,"Plant response rating, Barnyardgrass",[4]; [18],0
same,"Plant response rating, Barnyardgrass",[4]; [19],0
same,"Plant response rating, Barnyardgrass",[4]; [20],0
same,"Plant response rating, Barnyardgrass",[4]; [21],0
same,"Plant response rating, Morningglory",[5]; [18],55
same,"Plant response rating, Morningglory",[5]; [19],70
same,"Plant response rating, Morningglory",[5]; [20],0
same,"Plant response rating, Morningglory",[5]; [21],0
same,"Plant response rating, Pigweed",[6]; [18],95
same,"Plant response rating, Pigweed",[6]; [19],95
same,"Plant response rating, Pigweed",[6]; [20],75
same,"Plant response rating, Pigweed",[6]; [21],100
same,Junglerice plant response rating,[7]; 32 g ai/ha,0
same,Junglerice plant response rating,[7]; 64 g ai/ha,0
same,Junglerice plant response rating,[7]; 125 g ai/ha,0
same,Junglerice plant response rating,[7]; 250 g ai/ha,0
same,"Plant response rating, Junglerice",[7]; 16 g ai/ha,0
same,"Rice, Water Seeded plant response rating",[8]; 32 g ai/ha,0
same,"Rice, Water Seeded plant response rating",[8]; 64 g ai/ha,0
same,"Rice, Water Seeded plant response rating",[8]; 125 g ai/ha,0
same,"Rice, Water Seeded plant response rating",[8]; 250 g ai/ha,0
same,"Plant response rating, Rice, Water Seeded",[8]; 16 g ai/ha,0
same,"Watergrass, Early plant response rating",[9]; 32 g ai/ha,0
same,"Watergrass, Early plant response rating",[9]; 64 g ai/ha,0
same,"Watergrass, Early plant response rating",[9]; 125 g ai/ha,0
same,"Watergrass, Early plant response rating",[9]; 250 g ai/ha,0
same,"Plant response rating, Watergrass, Early",[9]; 16 g ai/ha,0
same,Redstem plant response rating,[10]; 32 g ai/ha,25
same,Redstem plant response rating,[10]; 64 g ai/ha,25
same,Redstem plant response rating,[10]; 125 g ai/ha,35
same,Redstem plant response rating,[10]; 250 g ai/ha,100
same,"Plant response rating, Redstem",[10]; 16 g ai/ha,0
same,Barnyardgrass plant response rating,[11]; 32 g ai/ha,0
same,Barnyardgrass plant response rating,[11]; 125 g ai/ha,0
same,Barnyardgrass plant response rating,[11]; 250 g ai/ha,0
same,"Watergrass, Late plant response rating",[12]; 32 g ai/ha,0
same,"Watergrass, Late plant response rating",[12]; 64 g ai/ha,0
same,"Watergrass, Late plant response rating",[12]; 125 g ai/ha,0
same,"Watergrass, Late plant response rating",[12]; 250 g ai/ha,0
same,"Plant response rating, Watergrass, Late",[12]; 16 g ai/ha,0
same,"Sedge, Umbrella plant response rating",[13]; 32 g ai/ha,30
same,"Sedge, Umbrella plant response rating",[13]; 64 g ai/ha,75
same,"Sedge, Umbrella plant response rating",[13]; 125 g ai/ha,90
same,"Sedge, Umbrella plant response rating",[13]; 250 g ai/ha,100
same,"Plant response rating, Sedge, Umbrella",[13]; 16 g ai/ha,0
same,Ducksalad plant response rating,[14]; 32 g ai/ha,80
same,Ducksalad plant response rating,[14]; 64 g ai/ha,100
same,Ducksalad plant response rating,[14]; 125 g ai/ha,100
same,Ducksalad plant response rating,[14]; 250 g ai/ha,100
same,"Plant response rating, Ducksalad",[14]; 16 g ai/ha,80
same,"Rice, Transplanted plant response rating",[15]; 32 g ai/ha,0
same,"Rice, Transplanted plant response rating",[15]; 64 g ai/ha,0
same,"Rice, Transplanted plant response rating",[15]; 125 g ai/ha,0
same,"Rice, Transplanted plant response rating",[15]; 250 g ai/ha,0
same,"Plant response rating, Rice, Transplanted",[15]; 16 g ai/ha,0
same,"Flatsedge, Rice plant response rating",[16]; 32 g ai/ha,100
same,"Flatsedge, Rice plant response rating",[16]; 64 g ai/ha,100
same,"Flatsedge, Rice plant response rating",[16]; 125 g ai/ha,100
same,"Flatsedge, Rice plant response rating",[16]; 250 g ai/ha,100
same,"Plant response rating, Flatsedge, Rice",[16]; 16 g ai/ha,90
same,"Sprangletop, Brdd. plant response rating",[17]; 32 g ai/ha,0
same,"Sprangletop, Brdd. plant response rating",[17]; 64 g ai/ha,0
same,"Sprangletop, Brdd. plant response rating",[17]; 125 g ai/ha,0
same,"Sprangletop, Brdd. plant response rating",[17]; 250 g ai/ha,0
same,"Plant response rating, Sprangletop, Brdd.",[17]; 16 g ai/ha,0
